Experimental data from US20160075653A1, “NEMATICIDAL N-(PHENYLCYCLOALKYL)CARBOXAMIDES AND N-(PHENYLCYCLOALKYL)THIOCARBOXAMIDES” (BAYER CROPSCIENCE AKTIENGESELLSCHAFT, priority 2013, published 2016).
Like-named read-outs stand apart in the source and are kept apart here.

Experiments:
Cooperia curticei = Cooperia curticei test (COOPCU), larval mortality; assay type: in vivo; conditions: for activity (larval mortality): application rate 4 ppm, after 5 days; for mortality at 20 ppm: Cooperia curticei, 120 h, read-out: activity (larval mortality)
Procedure: Cooneria curtice—Test (COOPCU) Solvent: dimethyl sulfoxide
(§1) To produce a suitable preparation of active compound, 10 mg of active compound are dissolved in 0.5 ml solvent, and the concentrate is diluted with “Ringer's solution” to the desired concentration.
Approximately 40 nematode larvae (Cooperia curticei) are transferred into a test tube containing the compound solution.
After 5 days percentage of larval mortality is recorded. 100% efficacy means all larvae are killed; 0% efficacy means no larvae are killed.

[1] = Measurement of log P values by HPLC on reversed phase columns (methods [a] pH 2.3, [b] pH 2.7, [c] pH 7.8); assay type: physicochemical; conditions: for chromatographic logP: reversed phase HPLC columns, read-out: logP
Summary of the method: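 Determined per EEC Directive 79/831 Annex V.A8 by reversed-phase HPLC, 10-95% acetonitrile gradient: [a] pH 2.3, 0.1% phosphoric acid; [b] LC-MS, pH 2.7, 0.1% formic acid; [c] LC-MS, pH 7.8, 0.001 molar ammonium hydrogen carbonate. Calibrated with C3-C16 alkan-2-ones by retention-time interpolation.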

Haemonchus contortus = Haemonchus contortus test (HAEMCO), larval mortality; assay type: in vivo; conditions: 120 h, read-out: activity (larval mortality)
Procedure: Haemonchus contortus—Test (HAEMCO) Solvent: dimethyl sulfoxide
as §1
Approximately 40 larvae of the red stomach worm (Haemonchus contortus) are transferred into a test tube containing compound solution.
After 5 days percentage of larval mortality are recorded. 100% efficacy means all larvae are killed, 0% efficacy means no larvae are killed.

Meloidogyne incognita = Meloidogyne incognita test (MELGIN), gall formation on salad seedlings; assay type: in vivo; conditions: application rate 20 ppm, after 14 days
Summary of the method: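 Sand vessels treated with acetone-formulated compound diluted in water, then inoculated with M. incognita eggs and larvae and sown with salad seeds. Root galling assessed after 14 days: 100% = no galls, 0% = galling equal to untreated plants.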

Boophilus microplus = Boophilus microplus injection test (BOOPMI Inj); assay type: in vivo; conditions: application rate 20 μg/animal, injection into abdomen of adult engorged female ticks, after 7 days
Procedure: Boonhilus micronlus—Injectiontest (BOOPMI Inj)
Solvent: dimethyl sulfoxide
To produce a suitable preparation of active compound, 10 mg of active compound are dissolved in 0.5 ml solvent, and the concentrate is diluted with solvent to the desired concentration.
Five adult engorged female ticks (Boophilus microplus) are injected with 1 μl compound solution into the abdomen. Ticks are transferred into replica plates and incubated in a climate chamber.
After 7 days the egg deposition of fertile eggs is monitored. Eggs where fertility is not visible are stored in a climate chamber till hatching after about 42 days. An efficacy of 100% means that all eggs are infertile; 0% means that all eggs are fertile.

[2] = HPLC reversed phase, method [b] (pH 2.7)
[3] = pH 2.7, HPLC reversed phase, method [b] (pH 2.7)

SMILES | activity (larval mortality) (Cooperia curticei) | logP [1, 2] | mortality at 20 ppm (Cooperia curticei) | mortality at 20 ppm (Haemonchus contortus) | nematicidal activity (percentage of gall formation; 100% = no galls) (Meloidogyne incognita) | chromatographic logP [1, 3] | other results
O=C(N[C@@H]1C[C@@H]1c1ccc(Cl)cc1Cl)c1ccccc1Br (relative stereo) [Compound 579] | 80% | 3.32^[b] | – | – | – | – | –
O=C(N[C@@H]1CC[C@@H]1c1ccccc1C(F)(F)F)c1cccnc1Cl [Compound 621] | – | – | 100% | 90% | 100% | – | chromatographic logP ([1]; pH 2.7, HPLC on reversed phase column, method [b], pH 2.7): 2.64
O=C(N[C@@H]1CC[C@@H]1c1c(F)cccc1F)c1ccccc1C(F)(F)F [Compound 513] | – | – | 80% | 90% | 100% | 3.15 | –
O=C(NC1CCC1c1ccc(Cl)cc1Cl)c1ccccc1 (stereo not drawn) [Compound 451] | 90% | 3.30^[b] | – | – | – | – | –
O=C(N[C@@H]1CC[C@@H]1c1ccc(Cl)cc1Cl)c1ccccc1I [Compound 456] | – | – | 100% | 100% | 100% | 3.75 | –
Cc1nn(C)c(F)c1C(=O)N[C@@H]1C[C@H]1c1ccccc1Cl (relative stereo) [Compound 49] | – | – | – | – | – | – | logP ([1]; HPLC on reversed phase columns, method [b], pH 2.7): 2.40^[b]; activity (efficacy: infertile eggs) (Boophilus microplus): 80%
